Structures can show the parent of a compound that is named as a salt.
tested on: 5-lipoxygenase; assay: not given; conditions: in words, prior-art compound; cited from earlier work

**Q.** For `CC(C)(C)c1cc(C=C2SC(=NC#N)NC2=O)cc(C(C)(C)C)c1O`, which 5-lipoxygenase inhibiting action is on record?
**A.** 5-lipoxygenase and cycloxygenase inhibiting actions

tested on: cycloxygenase; assay: not given; conditions: in words, prior-art compound; cited from earlier work

**Q.** With `CC(C)(C)c1cc(C=C2SC(=NC#N)NC2=O)cc(C(C)(C)C)c1O` as the compound, how does the cycloxygenase inhibiting action read?
**A.** 5-lipoxygenase and cycloxygenase inhibiting actions

tested on: aldose reducing enzyme; assay: not given; conditions: in words, prior-art compound; cited from earlier work

**Q.** For `CC(C)(C)c1cc(C=C2SC(=NC#N)NC2=O)cc(C(C)(C)C)c1O`, which “aldose reducing enzyme inhibiting action” value is on record?
**A.** no aldose reducing enzyme inhibiting action

target: aldose reducing enzyme (Homo sapiens, UniProt P15121); assay: Aldose reducing enzyme inhibiting activity (method of Hayman et al.); type: biochemical, Recombinant; conditions: 1.0×10^-7 mol concentration level of the tested compound; human recombinant enzyme; read-out: Inhibition rate (%)

**Q.** For `N#CN=C1NC(=O)C(=Cc2ccccc2)S1` [Example 6, 5-benzylidene-2-(N-cyanoimino)-4-oxythiazolidine], which inhibition at 0.1 µM is on record?
**A.** 32%

**Q.** With `N#CN=C1NC(=O)C(=Cc2ccc3c(c2)OCO3)S1` [Example 4, 2-(N-cyanoimino)-5-(3,4-methylenedioxybenzylidene) thiazolidin-4-one] as the compound, how does the inhibition at 0.1 µM read?
**A.** 44%

**Q.** For `CC(=Cc1ccccc1)C=C1SC(=NC#N)N(C)C1=O` [Example 3, 2-(N-cyanoimino)-3-methyl-5-(2-methyl-3-phenylpropenylidene) thiazolidin-4-one], which inhibition at 0.1 µM is on record?
**A.** 12%

**Q.** For `CCC(=C1SC(=NC#N)NC1=O)c1ccccc1` [Example 14, 2-(N-cyanoimino)-5-(1-phenylpropylidene) thiazolidin-4-one], which inhibition at 0.1 µM is on record?
**A.** 12%

**Q.** Which inhibition at 0.1 µM does the source give for `COc1cc(C=C2SC(=NC#N)NC2=O)ccc1O` [Example 10, 2-(N-cyanoimino)-5-(4-hydroxy-3-methoxybenzylidene) thiazolidin-4-one] here?
**A.** 100%

**Q.** With `COc1ccccc1C=CC=C1SC(=NC#N)NC1=O` [Example 12, 2-(N-cyanoimino)-5-[3-(2-methoxyphenyl)propenylidene] thiazolidin-4-one] as the compound, how does the inhibition at 0.1 µM read?
**A.** 84%

**Q.** Which inhibition at 0.1 µM does the source give for `CC(=Cc1ccccc1)C=C1SC(=NC#N)N(CC(=O)O)C1=O` [Example 2, 2-(N-cyanoimino)-5-(2-methyl-3-phenylpropenylidene)-4-oxo-3-thiazolidine acetic acid] here?
**A.** 100%

**Q.** Which inhibition at 0.1 µM does the source give for `N#CN=C1NC(=O)C(=Cc2ccc3ccccc3c2)S1` [Example 5, 2-(N-cyanoimino)-5-(2-naphthylmethylene) thiazolidin-4-one] here?
**A.** 44%

**Q.** For `CC(=C1SC(=NC#N)NC1=O)c1ccc2ccccc2c1` [Example 15, 2-(N-cyanoimino)-5-[1-(2-naphthyl)ethylidene] thiazolidin-4-one], which inhibition at 0.1 µM is on record?
**A.** 64%

**Q.** For `N#CN=C1NC(=O)C(=CC=Cc2ccccc2)S1` [Example 7, 2-(N-cyanoimino)-5-(3-phenylpropenylidene) thiazolidin-4-one], which inhibition at 0.1 µM is on record?
**A.** 44%

**Q.** For `Cc1cccc(C=C2SC(=NC#N)NC2=O)c1` [Example 11, 2-(N-cyanoimino)-5-(3-methylbenzylidene) thiazolidin-4-one], which inhibition at 0.1 µM is on record?
**A.** 52%

**Q.** For `CC(=Cc1ccccc1)C=C1SC(=NC#N)NC1=O` [Example 1, 2-(N-cyanoimino)-5-(2-methyl-3-phenylpropenylidene) thiazolidin-4-one], which inhibition at 0.1 µM is on record?
**A.** 72%

**Q.** Which inhibition at 0.1 µM does the source give for `COc1ccc2cc(C=C3SC(=NC#N)NC3=O)ccc2c1` [Example 8, 2-(N-cyanoimino)-5-[2-(6-methoxynaphthyl)methylene]thiazolidin-4-one] here?
**A.** 68%

**Q.** For `N#CN=C1NC(=O)C(=Cc2cccc3ccccc23)S1` [Example 9, 2-(N-cyanoimino)-5-(1-naphthylmethylene) thiazolidin-4-one], which inhibition at 0.1 µM is on record?
**A.** 20%

same assay, conditions: read-out: Inhibition rate (%)

**Q.** For `CC(=C1SC(=NC#N)NC1=O)c1ccccc1` [Example 13, 2-(N-cyanoimino)-5-(1-phenylethylidene) thiazolidin-4-one potassium salt], which inhibition at 0.1 µM is on record?
**A.** 60%
